Data as given in patent US8642317B2 (priority 2007, dated 2014).

Columns and labels:
[1] = tested on: bacterial isolate 180507-1 (IDAC)
[2] = tested on: bacterial isolate 180507-1 (IDAC); format: cell-based

Row | Molecule | degradation by the selected isolate (deepoxidation and/or deacylation) [1] | Reaction (sensitivity of the isolate) [2]
1 | 4-diacetoxyscirpenol | degraded | –
2 | CC(=O)O[C@@H]1C[C@]2(C)[C@@]3(CO)[C@H](O)C(=O)C(C)=C[C@H]3O[C@H]1[C@@]21CO1 [3-acetyldeoxynivalenol] | degraded | –
3 | CC(=O)OC[C@]12[C@H](O)C(=O)C(C)=C[C@H]1O[C@@H]1[C@H](O)C[C@@]2(C)[C@]12CO2 [15-acetyldeoxynivalenol] | degraded | –
4 | CC(=O)OCC12CCC(C)=CC1OC1C(O)C(O)C2(C)C12CO2 (stereo not shown) [15-monoacetoxyscirpenol] | degraded | –
5 | CC(=O)OC[C@]12C[C@H](OC(=O)CC(C)C)C(C)=C[C@H]1O[C@@H]1[C@H](O)[C@@H](O)[C@@]2(C)[C@]12CO2 [HT-2 toxin] | degraded | –
6 | CC1=C[C@H]2O[C@@H]3[C@H](O)[C@@H](O)[C@](C)([C@@]2(CO)C[C@@H]1OC(=O)CC(C)C)[C@]31CO1 [T-2 triol] | degraded | –
7 | CC(=O)O[C@@H]1[C@@H](O)[C@H]2O[C@@H]3C=C(C)C(=O)[C@@H](O)[C@]3(CO)[C@]1(C)[C@]21CO1 [fusarenon X] | degraded | –
8 | CC(=O)OC[C@]12C[C@H](O)C(C)=C[C@H]1O[C@@H]1[C@H](O)[C@@H](OC(C)=O)[C@@]2(C)[C@]12CO2 [neosolaniol] | degraded | –
9 | CC1=C[C@H]2O[C@@H]3[C@H](O)[C@@H](O)[C@](C)([C@@]2(CO)[C@H](O)C1=O)[C@]31CO1 [nivalenol] | degraded | –
10 | Vancomysin | – | Sensitive
